Data published in patent US12180226B2, “Spirotricycle RIPK1 inhibitors and methods of uses thereof” (Merck Sharp & Dohme LLC, priority 2021, dated 2024).
Where a name gives a salt, the structure may show the parent alone.

These compounds were tested against RIPK1 (recombinant GST-RIPK1 kinase domain, residues 1-327) (Homo sapiens (Human), UniProt Q13546) (assay: RIPK1-ADP-Glo Enzymatic Assay). Conditions: ADP-Glo; 25 nM GST-RIPK1, 300 μM ATP; assay lower limit ~25 nM; read-out: RIPK1 V0 Ec50.
Type: biochemical
How it was run: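 GST-tagged kinase domain (residues 1-327, Sf21-expressed), 25 nM, pre-incubated 30 min with compound at ambient temperature, then reacted 150 min with 300 μM ATP and 3 μM dephosphorylated MBP in HEPES pH 7.3 buffer. ADP measured by ADP-Glo luminescence; EC50 from ten-point titration (top 100000 nM), four-parameter fit.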

Chain of RIPK1 (recombinant GST-RIPK1 kinase domain, residues 1-327) (Q13546 1-327): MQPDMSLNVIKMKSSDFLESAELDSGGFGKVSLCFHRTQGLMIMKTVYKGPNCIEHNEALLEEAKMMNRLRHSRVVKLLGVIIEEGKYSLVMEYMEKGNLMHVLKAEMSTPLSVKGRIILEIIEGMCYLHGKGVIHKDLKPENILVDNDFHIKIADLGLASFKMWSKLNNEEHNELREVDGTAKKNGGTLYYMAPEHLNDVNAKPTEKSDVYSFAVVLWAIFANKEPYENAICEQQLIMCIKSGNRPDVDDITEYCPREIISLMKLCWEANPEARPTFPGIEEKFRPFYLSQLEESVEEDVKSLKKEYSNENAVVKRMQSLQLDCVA

Question: For `O=C1N2[C@@H](CC[C@H]2c2cc(F)cc(F)c2)OC12CCN(c1ccc(Br)c3ccnn13)CC2` [Example 13.6, (5′S,7a′R)-1-(4-bromopyrazolo[1,5-a]pyridin-7-yl)-5′-(3,5-difluorophenyl)tetrahydro-3′H-spiro[piperidine-4,2′-pyrrolo[2,1-b]oxazol]-3′-one, TFA salt], which EC50 is on record?
Answer: The EC50 was under 25 nM.

Question: `O=C(c1cccc2nccnc12)N1CCC2(CC1)O[C@@H]1CC[C@@H](c3cc(F)cc(F)c3)N1C2=O` [Example 6.55, (5′S,7a′R)-5′-(3,5-difluorophenyl)-1-(quinoxaline-5-carbon-yl)tetrahydro-3′H-spiro[piperidine-4,2′-pyrrolo[2,1-b][1,3]-oxazol]-3′-one] was tested. Which EC50 did it give?
Answer: Its EC50 is 280 nM.

Question: With `Cc1ncc([C@@H]2CC[C@H]3OC4(CCN(C(=O)c5ccccc5)CC4)C(=O)N32)cc1F` [Example 2.1, (5′S,7a′R)-1-benzoyl-5′-(5-fluoro-6-methylpyridin-3-yl)tetrahydro-3′H-spiro[piperidine-4,2′-pyrrolo[2,1-b]oxazol]-3′-one, TFA salt.] as the compound, how does the EC50 read?
Answer: The EC50 was 76.5 nM.

Question: `O=C(c1cc(F)ccc1F)N1CCC2(CC1)O[C@@H]1CC[C@@H](c3ccccc3F)N1C2=O` [Example 1.12, (5′S,7a′R)-1-(2,5-difluorobenzoyl)-5′-(2-fluorophenyl)tetrahydro-3′H-spiro[piperidine-4,2′-pyrrolo[2,1-b]oxazol]-3′-one] was tested. Which EC50 did it give?
Answer: Its EC50 is under 25 nM.

Question: Which EC50 does the source give for `O=C(c1ccccc1)N1CCC2(CC1)O[C@@H]1CC[C@@H](c3ccc(F)cc3)N1C2=O` [Example 2.8, (5′S,7a′R)-1-benzoyl-5′-(4-fluorophenyl)tetrahydro-3′H-spiro[piperidine-4,2′-pyrrolo[2,1-b]oxazol]-3′-one] here?
Answer: Its EC50 is 36.8 nM.

Question: For `COc1nc(N2CCC3(CC2)O[C@@H]2CC[C@@H](c4cc(F)cc(F)c4)N2C3=O)ncc1C#N` [Example 4.38, 2-[(5′S,7a′R)-5′-(3,5-difluorophenyl)-3′-oxotetrahydro-1H,3′H-spiro[piperidine-4,2′-pyrrolo[2,1-b] [1,3]oxazol]-1-yl]-4-methoxypyrimidine-5-carbonitrile], which EC50 is on record?
Answer: Its EC50 is 12 nM.

Question: Which EC50 does the source give for `COc1ccc(N2CCC3(CC2)O[C@@H]2CC[C@@H](c4cc(F)cc(F)c4)N2C3=O)n2ncnc12` [Example 19.3, (5′S,7a′R)-5′-(3,5-difluorophenyl)-1-(8-methoxy-[1,2,4]triazolo[1,5-a]pyridin-5-yl)tetrahydro-3′H-spiro[piperidine-4,2′ pyrrolo[2,1-b]oxazol]-3′-one, TFA salt] here?
Answer: Its EC50 is under 25 nM.

Question: With `O=C(c1cc(F)ccn1)N1CCC2(CC1)O[C@@H]1CC[C@@H](c3cc(F)cc(F)c3)N1C2=O` [Example 6.92, (5′S,7a′R)-5′-(3,5-difluorophenyl)-1-(4-fluoropyridine-2-carbonyl)tetrahydro-3′H-spiro[piperidine-4,2′-pyrrolo[2,1-b] [1,3]oxazol]-3′-one] as the compound, how does the EC50 read?
Answer: Its EC50 is 40.6 nM.

Question: How did the EC50 turn out when `CC1CN(C(=O)c2ccccc2)CCC12O[C@@H]1CC[C@@H](c3cc(F)cc(F)c3)N1C2=O` (single isomer, unassigned) [Example 2.7, (3[R or S],4[S or R], 5′S,7a′R)-1-benzoyl-5′-(3,5-difluorophenyl)-3-methyltetrahydro-3′H-spiro[piperidine-4,2′-pyrrolo[2,1-b]oxazol]-3′-one] was run?
Answer: Its EC50 is 43.1 nM.

Question: How did the EC50 turn out when `O=C(c1ccccc1)N1CCC2(CC1)O[C@@H]1CC[C@@H](c3cccc(F)c3F)N1C2=O` [Example 17.10, (5′S,7a′R)-1-benzoyl-5′-(2,3-difluorophenyl)tetrahydro-3′H-spiro[piperidine-4,2′-pyrrolo[2,1-b]oxazol]-3′-one] was run?
Answer: The EC50 was under 25 nM.

Question: `O=C(c1ccn(C2CC2)n1)N1CCC2(CC1)O[C@@H]1CC[C@@H](c3cc(F)cc(F)c3)N1C2=O` [Example 5.52, (5′S,7a′R)-1-(1-cycloprop-yl-1H-pyrazole-3-carbon-yl)-5′-(3,5-difluorophen-yl)tetrahydro-3′H-spiro [piperidine-4,2′-pyrrolo-[2,1-b]oxazol]-3′-one] was tested. Which EC50 did it give?
Answer: The EC50 was 88.8 nM.

Question: Which EC50 does the source give for `C#Cc1ccnc(C(=O)N2CCC3(CC2)O[C@@H]2CC[C@@H](c4cc(F)cc(F)c4)N2C3=O)c1` [Example 5.43, (5′S,7a′R)-5′-(3,5-difluoro-phenyl)-1-(4-ethynylpico-linoyl)tetrahydro-3′H-spiro[piperidine-4,2′-pyrrolo[2,1-b]oxazol]-3′-one] here?
Answer: The EC50 was under 25 nM.

Question: With `O=C(c1ccc(F)c(F)n1)N1CCC2(CC1)O[C@@H]1CC[C@@H](c3cc(F)cc(F)c3)N1C2=O` [Example 6.94, (5′S,7a′R)-5′-(3,5-difluorophenyl)-1-(5,6-difluoropyridine-2-carbonyl)tetrahydro-3′H-spiro[piperidine-4,2′-pyrrolo[2,1-b] [1,3]oxazol]-3′-one] as the compound, how does the EC50 read?
Answer: The EC50 was 30.5 nM.

Question: For `O=C1N2[C@@H](CC[C@H]2c2cc(F)cc(F)c2)OC12CCN(c1ccc(OCC3CCO3)c3ccnn13)CC2` (mixture of isomers) [Example 19.5, (5′S,7a′R)-5′-(3,5-difluorophenyl)-1-(4-(((R and S)-oxetan-2-yl)methoxy)pyrazolo [1,5-a]pyridin-7-yl)tetrahydro-3′H-spiro[piperidine-4,2′-pyrrolo[2,1-b]oxazol]-3′-one, TFA salt], which EC50 is on record?
Answer: The EC50 was 208 nM.

Question: Which EC50 does the source give for `Cc1cc(F)c(C(=O)N2CCC3(CC2)O[C@@H]2CC[C@@H](c4cc(F)cc(F)c4)N2C3=O)cc1F` [Example 5.6, (5′S,7a′R)-1-(2,5-difluoro-4-methylbenzene-1-carbonyl)-5′-(3,5-difluoro-phenyl)tetrahydro-3′H-spiro[piperidine-4,2′-pyrrolo[2,1-b][1,3]oxazol]-3′-one] here?
Answer: The EC50 was under 25 nM.

Question: With `O=C1N2[C@@H](CC[C@H]2c2ccccc2)OC12CCN(c1ccnc3ccnn13)CC2` [Example 4.28, (5′S,7a′R)-5′-phenyl-1-(pyrazolo[1,5-a]pyrimidin-7-yl)tetrahydro-3′H-spiro[piperidine-4,2′-pyrrolo[2,1-b] [1,3]oxazol]-3′-one] as the compound, how does the EC50 read?
Answer: Its EC50 is under 25 nM.

Question: Which EC50 does the source give for `N#Cc1ccc(N2CCC3(CC2)O[C@@H]2CC[C@@H](c4cc(F)cc(F)c4)N2C3=O)n2ncnc12` [Example 14.2, 5-((5′S,7a′R)-5′-(3,5-difluorophenyl)-3′-oxotetrahydro-3′H-spiro[piperidine-4,2′-pyrrolo[2,1-b]oxazol]-1-yl)-[1,2,4]triazolo[1,5-a]pyridine-8-carbonitrile, TFA salt] here?
Answer: The EC50 was under 25 nM.

Question: With `O=C(c1cc(Cl)ccc1F)N1CCC2(CC1)O[C@@H]1CC[C@@H](c3cc(F)cc(F)c3)N1C2=O` [Example 5.61, (5′S,7a′R)-1-(5-chloro-2-fluorobenzoyl)-5′-(3,5-difluorophenyl)tetrahydro-3′H-spiro[piperidine-4,2′-pyrrolo[2,1-b]oxazol]-3′-one] as the compound, how does the EC50 read?
Answer: The EC50 was under 25 nM.

Question: With `O=C1N2[C@@H](CC[C@H]2c2cc(F)cc(F)c2)OC12CCN(c1ncc(Cl)cn1)CC2` [Example 4.63, (5′S,7a′R)-1-(5-chloropyrimidin-2-yl)-5′-(3,5-difluorophenyl)tetrahydro-3′H-spiro[piperidine-4,2′-pyrrolo[2,1-b] [1,3]oxazol]-3′-one] as the compound, how does the EC50 read?
Answer: The EC50 was 48.6 nM.

Question: With `Cc1c(Br)ccnc1C(=O)N1CCC2(CC1)O[C@@H]1CC[C@@H](c3cc(F)cc(F)c3)N1C2=O` [Example 6.80, (5′S,7a′R)-1-(4-bromo-3-methylpyridine-2-carbonyl)-5′-(3,5-difluorophenyl)tetra-hydro-3′H-spiro [piperidine-4,2′-pyrrolo[2,1-b][1,3]-oxazol]-3′-one] as the compound, how does the EC50 read?
Answer: Its EC50 is 153 nM.

Question: With `O=C1CCc2c1cccc2C(=O)N1CCC2(CC1)O[C@@H]1CC[C@@H](c3cc(F)cc(F)c3)N1C2=O` [Example 5.28, (5′S,7a′R)-5′-(3,5-difluoro-phenyl)-1-(1-oxo-2,3-dihydro-1H-indene-4-carbonyl)tetrahydro-3′H-spiro[piperidine-4,2′-pyrrolo[2,1-b]oxazol]-3′-one] as the compound, how does the EC50 read?
Answer: The EC50 was 208 nM.

Question: For `CC(=O)c1cnc(N2CCC3(CC2)O[C@@H]2CC[C@@H](c4ccccc4)N2C3=O)cc1Cl` [Example 4.186, (5′S,7a′R)-1-(5-acetyl-4-chloropyridin-2-yl)-5′-phenyltetrahydro-3′H-spiro[piperidine-4,2′-pyrrolo[2,1-b] [1,3]oxazol]-3′-one], which EC50 is on record?
Answer: The EC50 was under 25 nM.

Question: `CC1CN(c2cc(C#N)ncn2)CCC12O[C@@H]1CC[C@@H](c3ccccc3)N1C2=O` (stereo partly drawn) [Example 4.236, 6-[(4R,5′S,7a′R)-3-methyl-3′-oxo-5′-phenyltetrahydro-1H,3′H-spiro[piperidine-4,2′-pyrrolo[2,1-b] [1,3]oxazol]-1-yl]pyrimidine-4-carbonitrile] was tested. Which EC50 did it give?
Answer: The EC50 was 50 nM.

Question: Which EC50 does the source give for `O=C1N2[C@@H](CC[C@H]2c2cnccn2)OC12CCN(c1ccnc3c(F)cnn13)CC2` [Example 4.140, (5′S,7a′R)-1-(3-fluoropyrazolo[1,5-a]pyrimidin-7-yl)-5′-(pyrazin-2-yl)tetrahydro-3′H-spiro[piperidine-4,2′-pyrrolo[2,1-b] [1,3]oxazol]-3′-one] here?
Answer: Its EC50 is 25.6 nM.

Question: With `N#Cc1cc(N2CCC3(CC2)N=C2CC[C@@H](c4cc(F)cc(F)c4)N2C3=O)ncn1` [Example 4.80, (S)-[5′-(3,5-difluorophenyl)-3′-oxo-6′,7′-dihydro-1H,3′H,5′H-spiro[piperidine-4,2′-pyrrolo[1,2-a]imidazol]-1-yl]pyrimidine-4-carbonitrile] as the compound, how does the EC50 read?
Answer: The EC50 was 494 nM.

Question: For `COc1ccc(F)c(C(=O)N2CCC3(CC2)O[C@@H]2CC[C@@H](c4ccccc4)N2C3=O)c1` [Example 6.149, (5′S,7a′R)-1-(2-fluoro-5-methoxybenzene-1-carbonyl)-5′-phenyl-tetrahydro-3′H-spiro [piperidine-4,2′-pyrrolo[2,1-b][1,3]oxazol]-3′-one], which EC50 is on record?
Answer: The EC50 was under 25 nM.

Question: `O=C(c1ccncn1)N1CCC2(CC1)O[C@@H]1CC[C@@H](c3cc(F)cc(F)c3)N1C2=O` [Example 6.63, (5′S,7a′R)-5′-(3,5-difluorophenyl)-1-(pyrimidine-4-carbon-yl)tetrahydro-3′H-spiro[piperidine-4,2′-pyrrolo[2,1-b][1,3]-oxazol]-3′-one] was tested. Which EC50 did it give?
Answer: The EC50 was 57.9 nM.
